Experimental findings from patent US5763406A, “Method for the treatment of conditions caused by herpes virus infections” (Carlbiotech, Ltd. A/S, priority 1991, dated 1998) are described below.

Data set [1] can be described thus: Systemic or local effects reported by treated patients. In kind it is in vivo, human.
The test system of the next data set is HSV-1 infection. Briefly: Patients' earlier aciclovir treatment of HSV-1 outbreaks (case history). The data set is classed as in vivo, human. On the procedure:
The patient had experienced similar lesions during the past 18 years, primarily during the winter months. They would usually experience 3-5 outbreaks each winter lasting 10-14 days before complete resolution. One year ago, they applied aciclovir topical to the lesions and on that occasion, resolution occured in 6-8 days.
When the lesions are treated with a 5% aciclovir ointment, topically, resolution is normally achieved within 6-7 days. […] On this occasion, […] denied any recent use of any topical or systemic therapy.
The patient had experienced outbreaks from HSV-1 […]. Five years ago the patient started to use aciclovir topically on a regular basis, but switched to take aciclovir orally 11/2 years ago. Normally the outbreaks would be on the lips, but occasionally the outbreaks would also appear on the neck and on the buccal mucosa. Without any form of medication, complete resolution would happen within 2-3 weeks and complete resolution by using aciclovir orally would happen within 1-2 weeks.

Take `C[C@@H](N)C(=O)N[C@@H](CO)C(=O)N[C@H](C(=O)N[C@H](C(=O)N[C@H](C(=O)N[C@@H](CC(N)=O)C(=O)N[C@@H](Cc1ccc(O)cc1)C(=O)N[C@H](C(N)=O)[C@@H](C)O)[C@@H](C)O)[C@@H](C)O)[C@@H](C)O` [(D-Ala^1)-Peptide-T Amide, D-Ala-Ser-Thr-Thr-Thr-Asn-Tyr-Thr-NH2]: the “systemic or local effects” value in data set [1] (Example 1, 10 mg/ml topical three times daily) is on record as “did not report any systemic or local effects other than those noted above”; in data set [1] (Example 4, 10 mg/ml topical four times in 36 hours), “did not experience any systemic or local effects other than those noted above”; in data set [1] (Example 5, 10 mg/ml topical two times daily), “did not observe any systemic or local effects other than those noted above”.
Turning to `Nc1nc2c(ncn2COCCO)c(=O)[nH]1` [aciclovir], the time to resolution in the data set on HSV-1 infection (Example 1 patient, aciclovir topical one year ago) fell in the range of 6 to 8 days; in the data set on HSV-1 infection (Example 2 patient, 5% aciclovir ointment, topically) it was 6 to 7 days. Moreover, in the data set with HSV-1 infection (Example 2 patient, aciclovir), the “effect of very early treatment of the lesions” value was “has not been able to stop the vesicles developing into painful ulcers although the ulcers tend to decrease in size”. The “effect from the use of aciclovir” value in the data set with HSV-1 infection (Example 4 patient) is reported as “never experienced any effect”. Also, the “time to complete resolution” value with HSV-1 infection (Example 5 patient, aciclovir orally) was 1-2 weeks.
